This note sets out measurements from ChEMBL document CHEMBL1139928, “Selective and dual action orally active inhibitors of thrombin and factor Xa” (Bioorg Med Chem Lett, 2007).

Data set [1] can be described thus: Half life in Sprague-Dawley rat. Type of data set: ADME, organism-based. The conditions noted are these: in vivo.
Data set [2] in a line: Plasma clearance in Sprague-Dawley rat. The class given is ADME, organism-based.
A short description of data set [3]: Volume of distribution in Sprague-Dawley rat. Type of data set: ADME, organism-based. The conditions noted are these: in vivo, read-out: Vdss.
Data set [4] can be described thus: Oral bioavailability in Sprague-Dawley rat. Conditions: in vivo. Type of data set: ADME, organism-based.
A short description of data set [5]: Half life in Beagle dog. The class given is ADME, organism-based, Canis lupus familiaris. The conditions noted are these: in vivo.
The nature of data set [6]: Plasma clearance in Beagle dog. Type of data set: ADME, organism-based, Canis lupus familiaris.
A short description of data set [7]: Volume of distribution in Beagle dog. Type of data set: ADME, organism-based, Canis lupus familiaris. Conditions: in vivo, read-out: Vdss.
Data set [8] can be described thus: Oral bioavailability in Beagle dog. The class given is ADME, organism-based, Canis lupus familiaris. Conditions: in vivo.

`C/C(=C\S(=O)(=O)N[C@H]1CCN([C@@H](C)C(=O)N2CCOCC2)C1=O)c1ccc(Cl)s1`: the half-life was 18 min in data set [1] and 36 min in data set [5]. For the same molecule, the clearance in data set [2] was found to be 21 mL/min/kg; in data set [6], 5.7 mL/min/kg. In addition, the Vd in data set [3] was 0.4 L/kg; in data set [7] it was 0.3 L/kg. Also, the bioavailability in data set [4] was 32%; in data set [8], 48%.
Regarding `C[C@@H](C(=O)N1CCOCC1)N1CC[C@H](NS(=O)(=O)CCc2ccc(Cl)s2)C1=O`, the half-life was 18 min in data set [1] and 30 min in data set [5]. Also, the clearance in data set [2] came to 28 mL/min/kg; in data set [6] it was 13 mL/min/kg. In addition, the results for the Vd in data set [3] and in data set [7] were 0.8 L/kg and 0.5 L/kg, respectively. Moreover, the bioavailability in data set [4] worked out at 31%; in data set [8], 38%.
With `C[C@@H](C(=O)N1CCOCC1)N1CC[C@H](NS(=O)(=O)/C=C/c2ccc(Cl)s2)C1=O` [GW813893], the clearance in data set [2] was 8 mL/min/kg; in data set [6] it was 4.6 mL/min/kg. Further, the Vd in data set [3] was 0.3 L/kg; in data set [7] it was 0.4 L/kg.
